Measured values taken from patent publication US20240165209A1, “PLACENTAL ALKALINE PHOSPHATASE FOR REDUCING THE LOSS OF RED BLOOD CELLS, WHITE BLOOD CELLS, AND PLATELETS IN CHEMOTHERAPY TREATED CANCER PATIENTS” (ZOLTAN LABORATORIES, LLC, priority 2021, published 2024).

Experiments:
bone marrow MSCs = assay: DNA synthesis ([3H]thymidine incorporation) in MSCs; type: cell-based, human; settings: 20 hours, no PLAP
Excerpt: For the experiment, bone marrow aspirates were taken from normal human adult donors after informed consent. For the preparation of bone marrow MSCs, essentially a widely used technique was used as described earlier by others [Pittenger, M. F., Mackay, A. M., Beck, S. C., et al. (1999) Multilineage potential of adult human mesenchymal stem cells. Science 284, 143-147]. Briefly, nucleated cells were isolated with a pre-prepared commercial density gradient (Lymphoprep, Nycomed, Pharma, Oslo, Norway) and re-suspended in Dulbecco's modified Eagle's medium (DMEM) (GIBCO, Grand Island, NY) supplemented with 10% fetal calf serum (FCS), 50 U/ml of penicillin, and 50 μg/ml of streptomycin (GIBCO). All nucleated cells were plated in 25-cm^2 flasks (BD Falcon, Bedford, MA) at 37° C. in humidified atmosphere containing 5% CO2. After 24 hours, non-adherent cells were removed and cryopreserved in liquid nitrogen until use. The remaining adherent cells were thoroughly washed with Hanks balanced salt solution (HBSS) (GIBCO). Fresh complete culture medium was added and replaced every 3 or 4 days (twice a week). When cells grew to about 80% confluence, they were suspended and harvested by incubating with a ready-made solution containing 0.25% trypsin and 1 mM EDTA (Sigma-Aldrich, St. Louis, MO) for 5 minutes at 37° C.; this cell suspension is designated as passage 1. These cells were further expanded with 1:3-1:5 splitting in 175-cm^2 flasks (BD Falcon). For the determination of DNA synthesis, cells were divided into 12-well plates in the complete medium and let the cells grow to about 60% confluence. After changing the spent medium for fresh complete medium (i.e., containing 10% fetal calf serum), cells were treated for 20 hours with 20-100 μM ATP and/or 200 nM PLAP as well as 50-200 μM Cyp in the absence or presence of 200 nM PLAP. For labeling newly formed DNA, cells received 1,130,000 d.p.m. [^3H] thymidine for the last 4 hours of the treatment period. DNA synthesis was determined as described earlier [She, Q.-B., Mukherjee, J. J., Huang, J.-S., Crilly, K. S. and Kiss, Z. (2000) Growth factor-like effects of placental alkaline phosphatase in human fetus and mouse embryo fibroblasts. FEBS Lett. 469, 163-167]. The data is expressed as d.p.m. [^3H] thymidine incorporated into DNA/well (n=3).

[1] = test system: blood cells (RBCs, WBCs, platelets) of T47D tumor bearing mice; assay: Experiment 1: blood cell counts in Cyp-treated T47D tumor bearing mice, last sample day 9; type: in vivo, mouse; settings: Cyp 120 mg/kg i.p. daily x6, PLAP 7.5 mg/kg s.c. days 0, 3, 6
Experimental: In the two experiments performed, first-generation hybrid BDF1 (C57BL/6 female×DBA/2 male) 10 weeks old adult female mice bearing T47D tumors (2.6-3.3 cm 3 volume) were used.
In the first group, mice received no treatment. In the second and third groups, mice were administered 120 mg/kg of cyclophosphamide (Cyp) intraperitoneally once a day for 6 consecutive days administered between 10-10.30 AM. In a third group, mice were also administered 7.5 mg/kg of PLAP subcutaneously on days 0, 3 and 6 between 9-9.30 AM. In each group, mice were kept on standard diet (˜15% fat, 65% carbohydrate, and 20% proteins) purchased from Charles River VRFI. Both PLAP (for the 3rd group) and Cyp were dissolved in physiological (0.9%) saline and injected in 50 μl volume. […] The data shown is the average of 6 independent determinations ±S.D.

[2] = test system: granulocyte-macrophage colony-forming units (CFU-GM); assay: Granulocyte-macrophage colony-forming units (CFU-GM), semisolid colony-forming cell assay, Cyp treated T47D tumor bearing mice; type: in vivo, mouse; settings: for CFU-GM/10^5 nucleated BM cells: Cyp 120 mg/kg i.p. daily x6, PLAP 7.5 mg/kg s.c. days 0, 2, 4, 6; for CFU-GM per femur: calculated: nucleated cells in the femur x CFU-GM
Experimental: Again, first-generation hybrid BDF1 (C57BL/6 female×DBA/2 male) 10 weeks old adult female mice bearing T47D tumors (2.6-3.3 cm^3) were used. In the first group, mice received no treatment. In the second and third groups, mice were administered 120 mg/kg of Cyp intraperitoneally once a day for 6 consecutive days. In a third group, mice were also administered 7.5 mg/kg of PALP subcutaneously on days 0, 2, 4 and 6. On the days indicated in TABLE 4, the animals were killed, then the bone marrow was flushed from the femurs with Iscove's modified Dulbecco's medium (Gibco BRL, Gaithersburg, MD, USA). This was followed by standard erythrocyte lysis and then by counting the number of nucleated bone marrow (BM) cells per femur using a hemocytometer.
To measure the formation of the granulocyte-macrophage colony-forming units (CFU-GM), a semisolid colony-forming cell assay was used. Equal numbers of nucleated bone marrow cells (isolated on days as indicated above) were plated in 35-mm Petri dishes (Costar, Cambridge, MA, USA) in Iscove's modified Dulbecco's medium supplemented with 1% methylcellulose, 30% horse serum (Gibco), 10% WEHI-3B conditioned medium as a source of growth factors, 4 mM L-glutamine, 0.25 mM α-thioglycerol (Gibco), 1% deionized bovine serum albumin (Sigma), and antibiotics (Gibco). Cells were cultured at 37° C. in 5% CO2/95% air atmosphere. CFU-GM was counted on day 9. Three parallel plates were used for each 3 animals (9 plates for one number). Colonies containing at least 50 cells were counted which is a generally accepted value in the literature. In TABLE 4, “CFU-GM per femur” is a calculated value derived from multiplying the number of nucleated cells in the femur with the number of CFU-GM; this number gives the number of CFU-GM in one femur. Each value is expressed as the mean±standard deviation of 9 plates (derived from 3 animals).

For `O.O=P1(N(CCCl)CCCl)NCCCO1` (stereo not shown) [Cyp, 2-[Bis (2-chloroethyl)amino] tetrahydro-2H-1,3,2-oxazaphosphorine 2-oxide monohydrate], the “d.p.m. [^3H] thymidine incorporated into DNA/well” value (bone marrow MSCs; Cyp 50 μM) was 51,684 ± 2.772 d.p.m, the “d.p.m. [^3H] thymidine incorporated into DNA/well” value (bone marrow MSCs; Cyp 200 μM) was 32,536 ± 3,280 d.p.m and the Platelets ([1]; day 0) was 1,114 ± 111 ×10^−3/μl. The RBCs ([1]; day 0) was 9.51 ± 1.09 ×10^−6/μl, the WBCs ([1]; day 0) was 7.92 ± 0.72 ×10^−3/μl and the Platelets ([1]; day 3) was 704 ± 98 ×10^−3/μl. The RBCs ([1]; day 3) was 7.28 ± 1.29 ×10^−6/μl, the WBCs ([1]; day 3) was 4.22 ± 0.85 ×10^−3/μl and the Platelets ([1]; day 6) was 404 ± 139 ×10^−3/μl. The RBCs ([1]; day 6) was 4.94 ± 0.63 ×10^−6/μl, the WBCs ([1]; day 6) was 2.73 ± 0.53 ×10^−3/μl and the Platelets ([1]; day 9) was 687 ± 114 ×10^−3/μl. For the same compound, the RBCs ([1]; day 9) was 6.26 ± 0.71 ×10^−6/μl, the WBCs ([1]; day 9) was 5.72 ± 0.49 ×10^−3/μl and the “CFU-GM/10^5 nucleated BM cells” value ([2]; BM isolated day 0) was 78.1 ± 6.1. The “CFU-GM/10^5 nucleated BM cells” value ([2]; BM isolated day 3) was 34.5 ± 7.2, the “CFU-GM/10^5 nucleated BM cells” value ([2]; BM isolated day 6) was 25.8 ± 4.4 and the “CFU-GM/10^5 nucleated BM cells” value ([2]; BM isolated day 9) was 98.5 ± 8.0. For the same compound, the CFU-GM per femur ([2]; day 0) was 1,101, the CFU-GM per femur ([2]; day 3) was 321 and the CFU-GM per femur ([2]; day 6) was 80. It also gave a CFU-GM per femur ([2]; day 9) of 482.
